Measurements: US12453737B2, “Method for hydrating lyophilized cyclophosphamide composition and product thereof” (priority 2018, dated 2025)
Like-named read-outs stand apart in the source and are kept apart here.

What was measured:
[1] = Stability in 45° C. oven, CPP content; format: physicochemical; details: raw material, comparison
Description: The moisture content, CPP content and redissolving time were determined for CPP freeze-dried composition hydrated with saturated sodium chloride solution in the freeze-drying box, respectively. In addition, the CPP freeze-dried compositions hydrated for 16 h and 24 h were placed in 45° C. oven and sampled for determining CPP contents after 1 week and 2 weeks, respectively.
Moisture content, CPP content and redissolving time were determined for CPP freeze-dried composition hydrated with saturated sodium chloride solution in the dryer, respectively. In addition, the CPP freeze-dried composition hydrated for 16 h was placed in 45° C. oven, sampled after 1 week and 2 weeks, respectively and determined for CPP contents. The CPP freeze-dried composition hydrated for 16 h was placed in 40° C./75% RH stability test chamber, was sampled after 1 month and 3 months, and determined for CPP contents, which were compared with CPP monohydrate obtained by prior art hydrating process.
The moisture content, CPP content and redissolving time were determined for CPP freeze-dried composition hydrated with saturated potassium sulfate solution in the dryer, respectively. In addition, the CPP freeze-dried composition hydrated for 16 h was placed in 45° C. oven and was sampled for determining CPP contents after 1 week and 2 weeks, respectively. […]

[2] = Stability in 40° C./75% RH stability test chamber, CPP content; format: physicochemical; details: raw material, comparison
Description: The CPP freeze-dried composition hydrated for 16 h was placed in 40° C./75% RH stability test chamber, was sampled after 1 month and 3 months, and determined for CPP contents, which were compared with CPP monohydrate obtained by prior art hydrating process.
The CPP freeze-dried composition hydrated for 16 h was placed in 40° C./75% RH stability test chamber, sampled after 1 month and 3 months for determining CPP contents.

[3] = format: physicochemical; details: no hydration solution
Description: The hydrated CPP freeze-dried composition was stirred by weighting scoop gently until flowable powder comes into being. Then 1-2 g test sample was added on injection plate. Test method and parameters were as follows:
It will be understood by a person of ordinary skill in the art that a common approach to defining the distribution width is to cite three values on the x-axis, the D10, D50, and D90. As used herein, the term (“D50” refers to the median particle diameter, wherein half of the particle population has a diameter below such value. As used herein, the teed “D90,” refers to the particle diameter wherein 90% of the particle population has a diameter below such value. As used herein, the term “D10,” refers to the particle diameter wherein 10% of the particle population has a diameter below such value. PSD results were listed in Table 19.

[4] = format: physicochemical; details: hydration pressure 50 kPa
[5] = format: physicochemical; details: hydration solution NA, 0.9% sodium chloride, 250 rpm, room temperature
Description: Then the glass vial was placed on cyclotron (HY-5, Shanghai Suhao intelligent system Co. Ltd) making the glass vial oscillate at 250 rpm at room temperature to dissolve the active ingredient completely. The redissolving time was recorded in Table 18.

[6] = format: physicochemical; details: reconstituted with 0.9% sodium chloride injection to 20 mg/ml
Description: Then content and impurity profiles in Room Temperature (RT) and Refrigerator (2-8° C.) are determined respectively.

[7] = format: physicochemical; details: strength NA, hydration solution NA
Description: BD is calculated by the following formula: BD (g/mL)=W/V0 • wherein • W is the theoretical weight, g; • V0 is the macroscopic volume, mL. • V0 is calculated by the following formula: V0 (mL)=πD^2h/4 • wherein • D is the theoretical inside diameter, cm; • h is the height, cm.

[8] = format: physicochemical; details: no strength, no hydration solution
Description: TD of the test sample is measured as per the Method I described in USP <616> which is obtained by mechanically tapping a graduated measuring cylinder (TAP Density Tester, Sotax TD2) containing the test sample.

[9] = Skeletal density (gas pycnometer); format: physicochemical; details: no strength, no hydration solution
Description: Skeletal Density, also known as true density, is determined at room temperature by Gas Pycnometer (Micromeritics Accupyc II 1340).

For `O=P1(N(CCCl)CCCl)NCCCO1` (stereo not shown) [CPP monohydrate raw material, Cyclophosphamide monohydrate], which “Stability-CPP content % 45° C.-2 weeks” value [1] is on record?
Its value is 101.8%.

What about the “Stability-CPP content % 40° C./75% RH-3 months” value [2] of the same molecule?
Its value is 86.1%.

Which results are given for `O=P1(N(CCCl)CCCl)NCCCO1` (stereo not drawn) [P—[N,N-bis(β-chloroethyl)]-1-oxa-3-aza-2-phosphocyclohexane-P-oxide]?
D10 (μm) [3]: 5.6 μm; D50 (μm) [3]: 34.8 μm; D90 (μm) [3]: 262.0 μm; Content (%) ([4]; 45° C. -1 Week): 82.6%; Impurity A (%) ([4]; 45° C. -1 Week): 0.65%; Impurity B (%) ([4]; 45° C. -1 Week): 0.61%; Impurity D (%) ([4]; 45° C. -1 Week): 0.71%; Max. individual unknown impurity (%) ([4]; 45° C. -1 Week): 2.01%; Total impurities (%) ([4]; 45° C. -1 Week): 5.66%; Content (%) ([4]; 45° C. -2 Weeks): 45.8%; Impurity A (%) ([4]; 45° C. -2 Weeks): 1.82%; Impurity B (%) ([4]; 45° C. -2 Weeks): 1.40%; Impurity D (%) ([4]; 45° C. -2 Weeks): 0.98%; Max. individual unknown impurity (%) ([4]; 45° C. -2 Weeks): 1.56%; Total impurities (%) ([4]; 45° C. -2 Weeks): 15.59%; Redissolving Time ([5]; strength 0.5 g): 8.7 min; Redissolving Time ([5]; strength 1 g): 11.2 min; Redissolving Time ([5]; strength 2 g): 16.4 min; Impurity A ([6]; 0 h (initial)): 0.03; Impurity B ([6]; 0 h (initial)): 0.03; Impurity D ([6]; 0 h (initial)): 0.00; Individual unknown impurity ([6]; 0 h (initial)): 0.08; Total impurities ([6]; 0 h (initial)): 0.15; Content ([6]; 3 Days (2-8° C.)): 96.7%; Impurity A ([6]; 3 Days (2-8° C.)): 0.00; Impurity B ([6]; 3 Days (2-8° C.)): 0.45; Impurity D ([6]; 3 Days (2-8° C.)): 0.00; Individual unknown impurity ([6]; 3 Days (2-8° C.)): 0.09; Total impurities ([6]; 3 Days (2-8° C.)): 0.57; Content ([6]; 6 Days (2-8° C.)): 95.2%; Impurity A ([6]; 6 Days (2-8° C.)): 0.00; Impurity B ([6]; 6 Days (2-8° C.)): 0.64; Impurity D ([6]; 6 Days (2-8° C.)): 0.00; Individual unknown impurity ([6]; 6 Days (2-8° C.)): 0.12; Total impurities ([6]; 6 Days (2-8° C.)): 0.77; Content ([6]; 6 h (RT)): 95.3%; Impurity A ([6]; 6 h (RT)): 0.00; Impurity B ([6]; 6 h (RT)): 0.71; Impurity D ([6]; 6 h (RT)): 0.00; Individual unknown impurity ([6]; 6 h (RT)): 0.06; Total impurities ([6]; 6 h (RT)): 0.81; Content ([6]; 12 h (RT)): 96.7%; Impurity A ([6]; 12 h (RT)): 0.00; Impurity B ([6]; 12 h (RT)): 1.01; Impurity D ([6]; 12 h (RT)): 0.05; Individual unknown impurity ([6]; 12 h (RT)): 0.14; Total impurities ([6]; 12 h (RT)): 1.33; Content ([6]; 24 h (RT)): 97.0%; Impurity A ([6]; 24 h (RT)): 0.03; Impurity B ([6]; 24 h (RT)): 1.82; Impurity D ([6]; 24 h (RT)): 0.30; Individual unknown impurity ([6]; 24 h (RT)): 0.47; Total impurities ([6]; 24 h (RT)): 2.64; Bulk Density [7]: 0.6246 g/mL; Tapped Density [8]: 0.9369 g/mL; Skeletal Density [9]: 1.4286 g/mL
